# Measurements taken from patent publication US20140024638A1, “TREATMENT OF COGNITIVE DYSFUNCTION IN SCHIZOPHRENIA” (TARGACEPT, INC., priority 2011, published 2014).
# Experiments:
# [1] = water solubility (salt screening); type: physicochemical
# [2] = hygroscopicity (salt screening); type: physicochemical
Structure (SMILES),water solubility [1],hygroscopicity [2]
"Cc1ccc(S(=O)(=O)O)cc1.O=C(N[C@@H]1C2CCN(CC2)[C@H]1Cc1cccnc1)c1cc2ccccc2o1 [p-toluenesulfonic acid salt, (2S,3R)—N-(2-((3-pyridinyl)methyl)-1-azabicyclo[2.2.2]oct-3-yl)benzofuran-2-carboxamide p-toluenesulfonate]",good,low
O=C(N[C@@H]1C2CCN(CC2)[C@H]1Cc1cccnc1)c1cc2ccccc2o1.O=P(O)(O)O [phosphoric acid salt],,low
